Compared with `*C(=C(*)c1ccc2c(c1)C(C)(C)c1ccccc1-2)c1ccccc1` (repeat unit), `*C(=C(*)c1ccc2c(c1)C(C)(C)CC2(C)C)c1ccc(Cl)cc1` (repeat unit) is higher in CH4 permeability: 9100 Barrer for the first, 22700 Barrer for the second.

Going from `*c1cc(C(=O)OCCC(F)(F)C(F)(F)C(F)(F)C(F)(F)C(F)(F)C(F)(F)F)cc(N2C(=O)c3ccc(Oc4ccc5c(c4)C(=O)N(*)C5=O)cc3C2=O)c1` (repeat unit) to `*c1ccc(Oc2ccc(N3C(=O)c4ccc([Si](C)(C)c5ccc6c(c5)C(=O)N(*)C6=O)cc4C3=O)cc2)cc1` (repeat unit), the CH4 permeability falls from 0.36 Barrer to 0.161 Barrer.

Compared with `*Oc1c(Br)cc(C(c2cc(Br)c(OC(=O)c3cc(C(*)=O)cc(C(C)(C)C)c3)c(Br)c2)(C(F)(F)F)C(F)(F)F)cc1Br` (repeat unit), `*c1ccc(-c2ccc(Oc3ccc4c(c3)C3(CC4(C)C)CC(C)(C)c4ccc(Oc5ccc(-c6ccc(N7C(=O)c8ccc(Oc9ccc%10c(c9)C(=O)N(*)C%10=O)cc8C7=O)cc6)cc5C(F)(F)F)cc43)c(C(F)(F)F)c2)cc1` (repeat unit) is lower in CH4 permeability: 3.36 Barrer for the first, 0.41 Barrer for the second.

Going from `*OC(=O)Oc1ccc(C2(c3ccc(*)cc3)CC3CCC2C3)cc1` (repeat unit) to `*Oc1ccc(Oc2ccc(C(=O)c3ccc(*)cc3)cc2)cc1` (repeat unit), the CH4 permeability falls from 0.48 Barrer to 0.0311 Barrer.

`*CCC[Si](*)(C)C` (repeat unit) showed a CH4 permeability of 8.4 Barrer.

Compared with `*C(=C(*)c1ccc2c(c1)C(C)(C)c1ccccc1-2)c1ccccc1` (repeat unit), `*C(=C(*)c1ccc2c(c1)C(C)(C)CC2(C)C)c1ccc(Cl)cc1` (repeat unit) is higher in CO2 permeability: 17000 Barrer for the first, 35200 Barrer for the second.

Compared with `*c1cc(C(=O)OCCC(F)(F)C(F)(F)C(F)(F)C(F)(F)C(F)(F)C(F)(F)F)cc(N2C(=O)c3ccc(Oc4ccc5c(c4)C(=O)N(*)C5=O)cc3C2=O)c1` (repeat unit), `*c1ccc(Oc2ccc(N3C(=O)c4ccc([Si](C)(C)c5ccc6c(c5)C(=O)N(*)C6=O)cc4C3=O)cc2)cc1` (repeat unit) is lower in CO2 permeability: 11 Barrer for the first, 3.31 Barrer for the second.

First: *Oc1c(Br)cc(C(c2cc(Br)c(OC(=O)c3cc(C(*)=O)cc(C(C)(C)C)c3)c(Br)c2)(C(F)(F)F)C(F)(F)F)cc1Br (repeat unit)
Second: *c1ccc(-c2ccc(Oc3ccc4c(c3)C3(CC4(C)C)CC(C)(C)c4ccc(Oc5ccc(-c6ccc(N7C(=O)c8ccc(Oc9ccc%10c(c9)C(=O)N(*)C%10=O)cc8C7=O)cc6)cc5C(F)(F)F)cc43)c(C(F)(F)F)c2)cc1 (repeat unit)
The CO2 permeability of the first is higher: 85.1 Barrer for the first, 22.6 Barrer for the second.

Compared with `*OC(=O)Oc1ccc(C2(c3ccc(*)cc3)CC3CCC2C3)cc1` (repeat unit), `*Oc1ccc(Oc2ccc(C(=O)c3ccc(*)cc3)cc2)cc1` (repeat unit) is lower in CO2 permeability: 9.1 Barrer for the first, 0.963 Barrer for the second.

Compared with `*C(=C(*)c1ccc2c(c1)C(C)(C)c1ccccc1-2)c1ccccc1` (repeat unit), `*C(=C(*)c1ccc2c(c1)C(C)(C)CC2(C)C)c1ccc(Cl)cc1` (repeat unit) is higher in H2 permeability: 8100 Barrer for the first, 20600 Barrer for the second.

Going from `*Oc1c(Br)cc(C(c2cc(Br)c(OC(=O)c3cc(C(*)=O)cc(C(C)(C)C)c3)c(Br)c2)(C(F)(F)F)C(F)(F)F)cc1Br` (repeat unit) to `*c1ccc(Cc2ccc(N3C(=O)c4ccc(Oc5ccc(C(c6ccc(Oc7ccc8c(c7)C(=O)N(*)C8=O)cc6)(C(F)(F)F)C(F)(F)F)cc5)cc4C3=O)cc2)cc1` (repeat unit), the H2 permeability falls from 149 Barrer to 8.31 Barrer.

Compared with `*OC(=O)Oc1ccc(C2(c3ccc(*)cc3)CC3CCC2C3)cc1` (repeat unit), `*c1ccc(Oc2ccc(N3C(=O)c4ccc([Si](C)(C)c5ccc6c(c5)C(=O)N(*)C6=O)cc4C3=O)cc2)cc1` (repeat unit) is lower in H2 permeability: 22 Barrer for the first, 9.83 Barrer for the second.

With `*c1ccc(Oc2ccc(N3C(=O)c4ccc(S(=O)(=O)c5ccc6c(c5)C(=O)N(*)C6=O)cc4C3=O)cc2)cc1` (repeat unit) the H2 permeability was 5.61 Barrer.

Going from `*C(=C(*)c1ccc2c(c1)C(C)(C)c1ccccc1-2)c1ccccc1` (repeat unit) to `*C(=C(*)c1ccc2c(c1)C(C)(C)CC2(C)C)c1ccc(Cl)cc1` (repeat unit), the N2 permeability rises from 3300 Barrer to 9200 Barrer.

First: *c1cc(C(=O)OCCC(F)(F)C(F)(F)C(F)(F)C(F)(F)C(F)(F)C(F)(F)F)cc(N2C(=O)c3ccc(Oc4ccc5c(c4)C(=O)N(*)C5=O)cc3C2=O)c1 (repeat unit)
Second: *c1ccc(Cc2ccc(N3C(=O)c4ccc(Oc5ccc(C(c6ccc(Oc7ccc8c(c7)C(=O)N(*)C8=O)cc6)(C(F)(F)F)C(F)(F)F)cc5)cc4C3=O)cc2)cc1 (repeat unit)
The N2 permeability of the first is higher: 0.56 Barrer for the first, 0.076 Barrer for the second.

First: *Oc1c(Br)cc(C(c2cc(Br)c(OC(=O)c3cc(C(*)=O)cc(C(C)(C)C)c3)c(Br)c2)(C(F)(F)F)C(F)(F)F)cc1Br (repeat unit)
Second: *c1ccc(-c2ccc(Oc3ccc4c(c3)C3(CC4(C)C)CC(C)(C)c4ccc(Oc5ccc(-c6ccc(N7C(=O)c8ccc(Oc9ccc%10c(c9)C(=O)N(*)C%10=O)cc8C7=O)cc6)cc5C(F)(F)F)cc43)c(C(F)(F)F)c2)cc1 (repeat unit)
The N2 permeability of the first is higher: 4.47 Barrer for the first, 1.12 Barrer for the second.

Going from `*OC(=O)Oc1ccc(C2(c3ccc(*)cc3)CC3CCC2C3)cc1` (repeat unit) to `*Oc1ccc(Oc2ccc(C(=O)c3ccc(*)cc3)cc2)cc1` (repeat unit), the N2 permeability falls from 0.47 Barrer to 0.0398 Barrer.

Compared with `*c1ccc(Oc2ccc(N3C(=O)c4ccc([Si](C)(C)c5ccc6c(c5)C(=O)N(*)C6=O)cc4C3=O)cc2)cc1` (repeat unit), `*c1ccc(Oc2ccc(N3C(=O)c4ccc(S(=O)(=O)c5ccc6c(c5)C(=O)N(*)C6=O)cc4C3=O)cc2)cc1` (repeat unit) is lower in N2 permeability: 0.104 Barrer for the first, 0.027 Barrer for the second.

Work on `*CCC[Si](*)(C)C` (repeat unit) yielded an N2 permeability of 3 Barrer.

Compared with `*C(=C(*)c1ccc2c(c1)C(C)(C)c1ccccc1-2)c1ccccc1` (repeat unit), `*C(=C(*)c1ccc2c(c1)C(C)(C)CC2(C)C)c1ccc(Cl)cc1` (repeat unit) is higher in O2 permeability: 4800 Barrer for the first, 11700 Barrer for the second.

First: *c1cc(C(=O)OCCC(F)(F)C(F)(F)C(F)(F)C(F)(F)C(F)(F)C(F)(F)F)cc(N2C(=O)c3ccc(Oc4ccc5c(c4)C(=O)N(*)C5=O)cc3C2=O)c1 (repeat unit)
Second: *c1ccc(Cc2ccc(N3C(=O)c4ccc(Oc5ccc(C(c6ccc(Oc7ccc8c(c7)C(=O)N(*)C8=O)cc6)(C(F)(F)F)C(F)(F)F)cc5)cc4C3=O)cc2)cc1 (repeat unit)
The O2 permeability of the first is higher: 2.61 Barrer for the first, 0.501 Barrer for the second.

Going from `*Oc1c(Br)cc(C(c2cc(Br)c(OC(=O)c3cc(C(*)=O)cc(C(C)(C)C)c3)c(Br)c2)(C(F)(F)F)C(F)(F)F)cc1Br` (repeat unit) to `*c1ccc(-c2ccc(Oc3ccc4c(c3)C3(CC4(C)C)CC(C)(C)c4ccc(Oc5ccc(-c6ccc(N7C(=O)c8ccc(Oc9ccc%10c(c9)C(=O)N(*)C%10=O)cc8C7=O)cc6)cc5C(F)(F)F)cc43)c(C(F)(F)F)c2)cc1` (repeat unit), the O2 permeability falls from 22.1 Barrer to 13.1 Barrer.

First: *OC(=O)Oc1ccc(C2(c3ccc(*)cc3)CC3CCC2C3)cc1 (repeat unit)
Second: *Oc1ccc(Oc2ccc(C(=O)c3ccc(*)cc3)cc2)cc1 (repeat unit)
The O2 permeability of the first is higher: 2.4 Barrer for the first, 0.259 Barrer for the second.

Going from `*c1ccc(Oc2ccc(N3C(=O)c4ccc([Si](C)(C)c5ccc6c(c5)C(=O)N(*)C6=O)cc4C3=O)cc2)cc1` (repeat unit) to `*c1ccc(Oc2ccc(N3C(=O)c4ccc(S(=O)(=O)c5ccc6c(c5)C(=O)N(*)C6=O)cc4C3=O)cc2)cc1` (repeat unit), the O2 permeability falls from 0.636 Barrer to 0.2 Barrer.

`*CCC[Si](*)(C)C` (repeat unit) gave an O2 permeability of 9.5 Barrer.
